From publication PMC9250534, “Synthesis and direct assay of large macrocycle diversities by combinatorial late-stage modification at picomole scale” (Nature Communications, 2022)
Blank lines part the entries; values can stand above or below the compound they belong to. Numbered stars: 1 amine (or outer) side, 2 acyl side, 3 side chain; on linkers, the order of the positions; unused ones are H or OH. Bridge positions count the residues as written; N and C are the ends. Square brackets hold non-standard residues; d marks the D form. Peptide text beside a SMILES is read from it. * marks the point of attachment. ξ: configuration not given here. Pro(cis-4-NH-(E)-Cinnamoyl) = O=C(/C=C/c1ccccc1)N[C@@H]1CN[C@H](C(=O)O)C1; ξPro(4-NHCO(5-Cl-2-thienyl)) = O=C(NC1CNC(C(=O)O)C1)c1ccc(Cl)s1; ξPro(4ξ-NHCOC6H4-4-Cl) = O=C(NC1CNC(C(=O)O)C1)c1ccc(Cl)cc1; 2Thenoyl(5-Cl) = O=C(c1ccc(Cl)s1)*; Benzoyl(4-Cl) = O=C(c1ccc(Cl)cc1)*; Cysteamide = C(CS[*:3])N[*:1]; X1 = O=C(/C=C/c1ccccc1)*; Dap = NC[C@H](N)C(=O)O; Mpa = O=C(O)CCS

Biological target: MDM2 (Homo sapiens, UniProt Q00987)
Assay: MDM2 binding screen: displacement of fluorescent p53 peptide probe FP53 (fluorescence polarization)
Conditions: crude macrocycle reactions; for fraction fluorescent probe displaced, Screen: initial screen
How it was run: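 Macrocycle reaction products at a final 10 µM were tested for displacement of a p53-based fluorescent peptide from human MDM2. Fluorescence anisotropy (ex 485/em 535 nm) was read once per macrocycle at 25 °C.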

Sequence of MDM2 (Q00987 whole entry): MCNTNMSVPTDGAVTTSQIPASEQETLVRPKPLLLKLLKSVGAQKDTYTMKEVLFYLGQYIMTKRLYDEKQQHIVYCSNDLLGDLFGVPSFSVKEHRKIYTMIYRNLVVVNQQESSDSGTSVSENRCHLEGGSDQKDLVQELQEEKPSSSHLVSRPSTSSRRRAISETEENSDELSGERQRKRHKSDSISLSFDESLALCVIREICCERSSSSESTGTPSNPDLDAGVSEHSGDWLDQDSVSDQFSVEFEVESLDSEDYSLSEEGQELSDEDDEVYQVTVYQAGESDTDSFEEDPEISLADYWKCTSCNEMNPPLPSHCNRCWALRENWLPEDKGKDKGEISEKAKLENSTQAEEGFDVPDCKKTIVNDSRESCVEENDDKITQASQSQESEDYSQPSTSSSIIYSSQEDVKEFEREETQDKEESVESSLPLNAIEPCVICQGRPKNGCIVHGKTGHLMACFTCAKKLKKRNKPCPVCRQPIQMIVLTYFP

fraction fluorescent probe displaced, Screen (Acid 14): 0.08
fraction fluorescent probe displaced, Replicate (Acid 14): 0.12
SMILES: O=C1CCSSCCNC(=O)[C@H](Cc2c[nH]c3ccccc23)NC(=O)[C@H]2CCCN(C2)C(=O)[C@H](CNC(=O)c2ccc(Cl)s2)N1 [X D3 B4 W Acid 14]

fraction fluorescent probe displaced, Screen (Acid 25): 0.25
fraction fluorescent probe displaced, Replicate (Acid 25): 0.20
SMILES: O=C1CCSSCCNC(=O)[C@H](Cc2c[nH]c3ccccc23)NC(=O)[C@H]2CCCN(C2)C(=O)[C@H](CNC(=O)c2ccc(Cl)cc2)N1 [X D3 B4 W Acid 25]

fraction fluorescent probe displaced, Screen (Acid 91): 0.11
fraction fluorescent probe displaced, Replicate (Acid 91): 0.09
SMILES: O=C(C=Cc1ccccc1)NCC1NC(=O)CCSSCCNC(=O)C(Cc2c[nH]c3ccccc23)NC(=O)C2CCCN(C2)C1=O (centres unmarked) [X D3 B4 W Acid 91]

fraction fluorescent probe displaced, Screen (Acid 91): -0.18
fraction fluorescent probe displaced, Replicate (Acid 91): -0.0333
SMILES: O=C(/C=C/c1ccccc1)NC[C@@H]1NC(=O)CCSSCCNC(=O)[C@H](Cc2ccccc2)NC(=O)c2cccc(c2)CNC1=O [X D3 B5 F Acid 91]

fraction fluorescent probe displaced, Screen (Acid 14): 0.14
fraction fluorescent probe displaced, Replicate (Acid 14): 0.20
SMILES: O=C1CCSSCCNC(=O)[C@H](Cc2c[nH]c3ccccc23)NC(=O)c2cccc(c2)CNC(=O)[C@H](CNC(=O)c2ccc(Cl)s2)N1 [X D3 B5 W Acid 14]

fraction fluorescent probe displaced, Screen (Acid 25): 0.25
fraction fluorescent probe displaced, Replicate (Acid 25): 0.10
SMILES: O=C1CCSSCCNC(=O)[C@H](Cc2c[nH]c3ccccc23)NC(=O)c2cccc(c2)CNC(=O)[C@H](CNC(=O)c2ccc(Cl)cc2)N1 [X D3 B5 W Acid 25]

fraction fluorescent probe displaced, Screen (Acid 91): 0.08
fraction fluorescent probe displaced, Replicate (Acid 91): 0.14
SMILES: O=C(C=Cc1ccccc1)NCC1NC(=O)CCSSCCNC(=O)C(Cc2c[nH]c3ccccc23)NC(=O)c2cccc(c2)CNC1=O (centres unmarked) [X D3 B5 W Acid 91]

fraction fluorescent probe displaced, Screen (Acid 91): -0.05
fraction fluorescent probe displaced, Replicate (Acid 91): -0.06
SMILES: O=C(/C=C/c1ccccc1)NC[C@@H]1NC(=O)CCSSCCNC(=O)[C@@H]2CCCN2C(=O)[C@H](Cc2ccccc2)NC1=O [X D3 F B1 Acid 91] ([Mpa][Dap](X1)FP-Cysteamide; disulfide 1-C)

fraction fluorescent probe displaced, Screen (Acid 14): 0.053
fraction fluorescent probe displaced, Replicate (Acid 14): 0.10
SMILES: O=C1CCNC(=O)[C@H](Cc2ccccc2)NC(=O)[C@H](CNC(=O)c2ccc(Cl)s2)NC(=O)CCSSCCN1 [X D3 F B2 Acid 14]

fraction fluorescent probe displaced, Screen (Acid 25): -0.00813
fraction fluorescent probe displaced, Replicate (Acid 25): 0.0211
SMILES: O=C1CCNC(=O)[C@H](Cc2ccccc2)NC(=O)[C@H](CNC(=O)c2ccc(Cl)cc2)NC(=O)CCSSCCN1 [X D3 F B2 Acid 25]

fraction fluorescent probe displaced, Screen (Acid 91): 0.0563
fraction fluorescent probe displaced, Replicate (Acid 91): -0.0333
SMILES: O=C(/C=C/c1ccccc1)NC[C@@H]1NC(=O)CCSSCCNC(=O)CCNC(=O)[C@H](Cc2ccccc2)NC1=O [X D3 F B2 Acid 91]

fraction fluorescent probe displaced, Screen (Acid 14): 0.053
fraction fluorescent probe displaced, Replicate (Acid 14): -0.03
SMILES: O=C1CCSSCCNC(=O)[C@H]2CCCN(C2)C(=O)[C@H](Cc2ccccc2)NC(=O)[C@H](CNC(=O)c2ccc(Cl)s2)N1 [X D3 F B4 Acid 14]

fraction fluorescent probe displaced, Screen (Acid 25): 0.0569
fraction fluorescent probe displaced, Replicate (Acid 25): 0.10
SMILES: O=C1CCSSCCNC(=O)c2cccc(c2)CNC(=O)C(Cc2ccccc2)NC(=O)C(CNC(=O)c2ccc(Cl)cc2)N1 (centres unmarked) [X D3 F B5 Acid 25]

fraction fluorescent probe displaced, Screen (Acid 14): 0.14
fraction fluorescent probe displaced, Replicate (Acid 14): 0.17
SMILES: O=C1CCSSCCNC(=O)[C@@H]2CCCN2C(=O)[C@H](Cc2c[nH]c3ccccc23)NC(=O)[C@H](CNC(=O)c2ccc(Cl)s2)N1 [X D3 W B1 Acid 14] ([Mpa][Dap](2Thenoyl(5-Cl))WP-Cysteamide; disulfide 1-C)

fraction fluorescent probe displaced, Screen (Acid 25): 0.12
fraction fluorescent probe displaced, Replicate (Acid 25): 0.22
SMILES: O=C1CCSSCCNC(=O)[C@@H]2CCCN2C(=O)[C@H](Cc2c[nH]c3ccccc23)NC(=O)[C@H](CNC(=O)c2ccc(Cl)cc2)N1 [X D3 W B1 Acid 25] ([Mpa][Dap](Benzoyl(4-Cl))WP-Cysteamide; disulfide 1-C)

fraction fluorescent probe displaced, Screen (Acid 14): 0.23
fraction fluorescent probe displaced, Replicate (Acid 14): 0.20
SMILES: O=C1CCNC(=O)[C@H](Cc2c[nH]c3ccccc23)NC(=O)[C@H](CNC(=O)c2ccc(Cl)s2)NC(=O)CCSSCCN1 [X D3 W B2 Acid 14]

fraction fluorescent probe displaced, Screen (Acid 25): 0.15
fraction fluorescent probe displaced, Replicate (Acid 25): 0.20
SMILES: O=C1CCNC(=O)[C@H](Cc2c[nH]c3ccccc23)NC(=O)[C@H](CNC(=O)c2ccc(Cl)cc2)NC(=O)CCSSCCN1 [X D3 W B2 Acid 25]

fraction fluorescent probe displaced, Screen (Acid 91): 0.19
fraction fluorescent probe displaced, Replicate (Acid 91): 0.0168
SMILES: O=C(/C=C/c1ccccc1)NC[C@@H]1NC(=O)CCSSCCNC(=O)CCNC(=O)[C@H](Cc2c[nH]c3ccccc23)NC1=O [X D3 W B2 Acid 91]

fraction fluorescent probe displaced, Screen (Acid 14): 0.20
fraction fluorescent probe displaced, Replicate (Acid 14): 0.0465
SMILES: O=C1CCSSCCNC(=O)[C@H]2CCCN(C2)C(=O)[C@H](Cc2c[nH]c3ccccc23)NC(=O)[C@H](CNC(=O)c2ccc(Cl)s2)N1 [X D3 W B4 Acid 14]

fraction fluorescent probe displaced, Screen (Acid 91): 0.14
fraction fluorescent probe displaced, Replicate (Acid 91): 0.04
SMILES: O=C(/C=C/c1ccccc1)NC[C@@H]1NC(=O)CCSSCCNC(=O)[C@H]2CCCN(C2)C(=O)[C@H](Cc2c[nH]c3ccccc23)NC1=O [X D3 W B4 Acid 91]

fraction fluorescent probe displaced, Screen (Acid 14): 0.26
fraction fluorescent probe displaced, Replicate (Acid 14): 0.22
SMILES: O=C1CCSSCCNC(=O)c2cccc(c2)CNC(=O)[C@H](Cc2c[nH]c3ccccc23)NC(=O)[C@H](CNC(=O)c2ccc(Cl)s2)N1 [X D3 W B5 Acid 14]

fraction fluorescent probe displaced, Screen (Acid 25): 0.35
fraction fluorescent probe displaced, Replicate (Acid 25): 0.28
SMILES: O=C1CCSSCCNC(=O)c2cccc(c2)CNC(=O)[C@H](Cc2c[nH]c3ccccc23)NC(=O)[C@H](CNC(=O)c2ccc(Cl)cc2)N1 [X D3 W B5 Acid 25]

fraction fluorescent probe displaced, Screen (Acid 91): 0.24
fraction fluorescent probe displaced, Replicate (Acid 91): 0.32
SMILES: O=C(/C=C/c1ccccc1)NC[C@@H]1NC(=O)CCSSCCNC(=O)c2cccc(c2)CNC(=O)[C@H](Cc2c[nH]c3ccccc23)NC1=O [X D3 W B5 Acid 91]

fraction fluorescent probe displaced, Screen (Acid 25): -0.07
fraction fluorescent probe displaced, Replicate (Acid 25): 0.12
SMILES: O=C(NC1CC2C(=O)N3CCCC3C(=O)NC(Cc3ccccc3)C(=O)NCCSSCCC(=O)N2C1)c1ccc(Cl)cc1 (centres unmarked) [X D5 B1 F Acid 25] ([Mpa][ξPro(4ξ-NHCOC6H4-4-Cl)]PF-Cysteamide; disulfide 1-C; configuration not given here)

fraction fluorescent probe displaced, Screen (Acid 14): 0.17
fraction fluorescent probe displaced, Replicate (Acid 14): 0.0465
SMILES: O=C(NC1CC2C(=O)N3CCCC3C(=O)NC(Cc3c[nH]c4ccccc34)C(=O)NCCSSCCC(=O)N2C1)c1ccc(Cl)s1 (centres unmarked) [X D5 B1 W Acid 14] ([Mpa][ξPro(4-NHCO(5-Cl-2-thienyl))]PW-Cysteamide; disulfide 1-C; configuration not given here)

fraction fluorescent probe displaced, Screen (Acid 25): 0.25
fraction fluorescent probe displaced, Replicate (Acid 25): 0.15
SMILES: O=C(NC1CC2C(=O)N3CCCC3C(=O)NC(Cc3c[nH]c4ccccc34)C(=O)NCCSSCCC(=O)N2C1)c1ccc(Cl)cc1 (centres unmarked) [X D5 B1 W Acid 25] ([Mpa][ξPro(4ξ-NHCOC6H4-4-Cl)]PW-Cysteamide; disulfide 1-C; configuration not given here)

fraction fluorescent probe displaced, Screen (Acid 91): 0.03
fraction fluorescent probe displaced, Replicate (Acid 91): 0.07
SMILES: O=C(/C=C/c1ccccc1)N[C@H]1C[C@H]2C(=O)N3CCC[C@H]3C(=O)N[C@@H](Cc3c[nH]c4ccccc34)C(=O)NCCSSCCC(=O)N2C1 [X D5 B1 W Acid 91] ([Mpa][Pro(cis-4-NH-(E)-Cinnamoyl)]PW-Cysteamide; disulfide 1-C)

fraction fluorescent probe displaced, Screen (Acid 14): -0.0337
fraction fluorescent probe displaced, Replicate (Acid 14): 0.07
SMILES: O=C1CCNC(=O)C2CC(NC(=O)c3ccc(Cl)s3)CN2C(=O)CCSSCCNC(=O)C(Cc2ccccc2)N1 (centres unmarked) [X D5 B2 F Acid 14]

fraction fluorescent probe displaced, Screen (Acid 25): 0.15
fraction fluorescent probe displaced, Replicate (Acid 25): 0.07
SMILES: O=C1CCNC(=O)C2CC(NC(=O)c3ccc(Cl)cc3)CN2C(=O)CCSSCCNC(=O)C(Cc2c[nH]c3ccccc23)N1 (centres unmarked) [X D5 B2 W Acid 25]

fraction fluorescent probe displaced, Screen (Acid 14): -0.06
fraction fluorescent probe displaced, Replicate (Acid 14): 0.0211
SMILES: O=C(NC1CC2C(=O)N3CCCC(C3)C(=O)NC(Cc3ccccc3)C(=O)NCCSSCCC(=O)N2C1)c1ccc(Cl)s1 (centres unmarked) [X D5 B4 F Acid 14]

fraction fluorescent probe displaced, Screen (Acid 14): 0.11
fraction fluorescent probe displaced, Replicate (Acid 14): 0.12
SMILES: O=C(NC1CC2C(=O)N3CCCC(C3)C(=O)NC(Cc3c[nH]c4ccccc34)C(=O)NCCSSCCC(=O)N2C1)c1ccc(Cl)s1 (centres unmarked) [X D5 B4 W Acid 14]

fraction fluorescent probe displaced, Screen (Acid 14): -0.0337
fraction fluorescent probe displaced, Replicate (Acid 14): 0.0465
SMILES: O=C1NC(Cc2ccccc2)C(=O)NCCSSCCC(=O)N2CC(NC(=O)c3ccc(Cl)s3)CC2C(=O)NCc2cccc1c2 (centres unmarked) [X D5 B5 F Acid 14]

fraction fluorescent probe displaced, Screen (Acid 25): -0.00813
fraction fluorescent probe displaced, Replicate (Acid 25): 0.15
SMILES: O=C(N[C@H]1C[C@H]2C(=O)NCc3cccc(c3)C(=O)N[C@@H](Cc3ccccc3)C(=O)NCCSSCCC(=O)N2C1)c1ccc(Cl)cc1 [X D5 B5 F Acid 25]

fraction fluorescent probe displaced, Screen (Acid 91): -0.05
fraction fluorescent probe displaced, Replicate (Acid 91): 0.07
SMILES: O=C(C=Cc1ccccc1)NC1CC2C(=O)NCc3cccc(c3)C(=O)NC(Cc3ccccc3)C(=O)NCCSSCCC(=O)N2C1 (centres unmarked) [X D5 B5 F Acid 91]

fraction fluorescent probe displaced, Screen (Acid 91): 0.00268
fraction fluorescent probe displaced, Replicate (Acid 91): 0.09
SMILES: O=C(/C=C/c1ccccc1)N[C@H]1C[C@H]2C(=O)NCc3cccc(c3)C(=O)N[C@@H](Cc3c[nH]c4ccccc34)C(=O)NCCSSCCC(=O)N2C1 [X D5 B5 W Acid 91]

fraction fluorescent probe displaced, Screen (Acid 14): 0.28
fraction fluorescent probe displaced, Replicate (Acid 14): 0.0465
SMILES: O=C(NC1CC2C(=O)NC(Cc3ccccc3)C(=O)N3CCCC3C(=O)NCCSSCCC(=O)N2C1)c1ccc(Cl)s1 (centres unmarked) [X D5 F B1 Acid 14] ([Mpa][ξPro(4-NHCO(5-Cl-2-thienyl))]FP-Cysteamide; disulfide 1-C; configuration not given here)

fraction fluorescent probe displaced, Screen (Acid 14): 0.08
fraction fluorescent probe displaced, Replicate (Acid 14): 0.0465
SMILES: O=C1CCNC(=O)C(Cc2ccccc2)NC(=O)C2CC(NC(=O)c3ccc(Cl)s3)CN2C(=O)CCSSCCN1 (centres unmarked) [X D5 F B2 Acid 14]
